Test [1] addresses T1, BglB (β-glucosidase from B. subtilis RA10) (Bacillus subtilis, UniProt P42403).
T1 construct: gene bglC; full-length GH1 gene (1437 bp, start MIHKKQG, end TNGKSL fixed by degenerate primers) in pET28a+ (BamHI/SalI), E. coli BL21(DE3); Asn169-Glu170, nucleophile Glu377
The test is described as follows: β-glucosidase activity with added glucose ([…]). The test is classed as biochemical. The conditions noted are these: inhibitor (product); weak inhibition.

The target in test [2] is T1, BglB (β-glucosidase from B. subtilis RA10). Put plainly: Michaelis-Menten nonlinear regression, p-nitrophenol release. It is filed as biochemical. Conditions: 50 mM citrate pH 5.0; 0.5-5.0 mM substrate.

T1 sequence (P42403 whole entry): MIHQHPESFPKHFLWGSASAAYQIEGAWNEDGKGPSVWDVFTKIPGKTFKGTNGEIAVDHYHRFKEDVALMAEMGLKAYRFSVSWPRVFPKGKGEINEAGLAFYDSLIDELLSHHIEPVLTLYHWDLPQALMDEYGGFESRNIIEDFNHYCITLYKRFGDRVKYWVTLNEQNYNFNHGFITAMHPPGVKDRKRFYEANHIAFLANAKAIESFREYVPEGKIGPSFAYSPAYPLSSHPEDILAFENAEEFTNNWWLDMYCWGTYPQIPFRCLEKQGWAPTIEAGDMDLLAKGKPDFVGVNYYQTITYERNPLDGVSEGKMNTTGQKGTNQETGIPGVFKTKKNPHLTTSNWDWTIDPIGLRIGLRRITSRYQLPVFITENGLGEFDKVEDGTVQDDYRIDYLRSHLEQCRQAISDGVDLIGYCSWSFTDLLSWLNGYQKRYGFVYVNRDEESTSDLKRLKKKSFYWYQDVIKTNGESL

In the case of `OC[C@H]1OC(O)[C@H](O)[C@@H](O)[C@@H]1O` (stereo partly drawn) [D-glucose], the “% activity retained at 1000 mM” value in test [1] stood at 70%.

By Km is commonly meant the substrate concentration at which the rate is half of its maximum. As for `O=[N+]([O-])c1ccc(O[C@@H]2O[C@H](CO)[C@@H](O)[C@H](O)[C@H]2O)cc1` [pNPG, p-nitrophenyl-β-D-glucopyranoside], the Km in test [2] was determined as 3.9 ± 0.2 mM.
